Measurements as given in PubChem BioAssay AID1553 (Sanford-Burnham Center for Chemical Genomics, 2009).
The source made the active and inactive calls.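 How the source made its calls: active means compounds graded as giving a low, moderate or strong rise in tritium labelling of cell protein versus solvent control; inactive means the rest.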

System: HeLa cells, 3H-mannose incorporation into glycoproteins
Test: increase in 3H-mannose incorporation into HeLa proteins, late-stage follow-up, orthogonal assay for PMI inhibitor project, HeLa cells (AID 1553);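 further: 1 fold = DMSO treated HeLa control cells; higher fold signals phosphomannose isomerase inhibition routing mannose into glycosylation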
[1] = fold increase, at 25 µM, stronger effect = higher value

| Compound | fold increase 3H incorporation (at 100 µM) | fold increase 3H incorporation [1] |
| --- | --- | --- |
| O=c1c2ccccc2sn1-c1nccs1 | 1 (inactive) | 0.9 |
| OCc1ccccc1N=c1ssnc1Cl | 0.9 (inactive) | 0.9 |
| Cc1cccc(N=c2ssnc2Cl)c1 | 0.7 | 1.6 |
| Cc1ccc(N=c2ssnc2Cl)nc1 | 0 | 1.2 |
| Cc1ccc(N=c2ssnc2Cl)cc1 | 1.6 | 1.1 |
| Clc1nssc1=Nc1ccccc1 | 1.9 | 1.2 |
| CN(C)S(=O)(=O)c1cccc(-n2sc3ccccc3c2=O)c1 | 1.1 | 1.1 |
| COc1cc(N=c2ssnc2Cl)cc(OC)c1 | 1.9 | 1.1 |
| Cc1ccc(C)c(-n2[nH]c3ccccc3c2=O)c1 | 0.8 (inactive) | 0.9 |
| COc1cc([N+](=O)[O-])ccc1N=c1ssnc1Cl | 1.4 | 1.3 |
| COc1cc(-c2nc(=S)[nH][nH]2)cc(OC)c1OC | 0.8 (inactive) | – |
| Clc1ccc(N=c2ssnc2Cl)cc1 | 0.2 (inactive) | 1.1 |
| COc1cc(N=c2ssnc2Cl)cc(OC)c1OC | 1.2 (inactive) | 1.1 |
| Cc1ccc(-n2sc3ccccc3c2=O)cc1S(=O)(=O)N1CCCCC1 | 1.4 | 1.2 |
| COc1ccc(-c2nc(=S)[nH][nH]2)cc1 | 0.8 (inactive) | 1 |
| Cc1ccc(N=c2ssnc2Cl)cc1[N+](=O)[O-] | 0.2 | 2.1 |
| Cc1ccc(N=c2ssnc2Cl)c([N+](=O)[O-])c1 | 3.2 | 1.5 |
| CCSc1n[nH]c(=S)s1 | 1 (inactive) | 1 |
| Clc1nss/c1=N\c1nc2ccccc2s1 | 0.1 (inactive) | 0.7 |
| O=c1c2ccccc2sn1-c1cc(S(=O)(=O)N2CCOCC2)ccc1N1CCCC1 | 0.7 (inactive) | 0.7 |
| O=c1c2c([N+](=O)[O-])cc([N+](=O)[O-])cc2sn1-c1ccc(F)cc1 | 0.8 (inactive) | 0.9 |

| Compound | fold increase 3H incorporation (at 100 µM) | fold increase 3H incorporation [1] |
| --- | --- | --- |
| CC(C)(C)c1ccc(N=c2ssnc2Cl)cc1 | 1 (inactive) | 0.7 |
| Clc1nss/c1=N\c1nncs1 | 0.5 (inactive) | 0.9 |
| CCOc1ccc(-c2nc(=S)[nH][nH]2)cc1 | 0.7 (inactive) | – |
| O=[N+]([O-])c1ccc(N=c2ssnc2Cl)c2ccccc12 | 0.4 | 0.5 |
| Oc1ccc(N=c2ssnc2Cl)cc1 | 0.7 (inactive) | 0.8 |
| Cc1cccc(-n2sc3cc(F)ccc3c2=O)c1C | 0.5 | 2.1 |
| O=c1c2ccc(O)cc2sn1C1CCCC1 | 0.8 (inactive) | 1.1 |
| S=c1nc(-c2cccc(Cl)c2)[nH][nH]1 | 1 (inactive) | – |
| O=c1c2ccccc2sn1-c1cccc(C(F)(F)F)c1 | 0.7 | 1.2 |
| FC(F)(F)c1ccc(N=c2ssnc2Cl)cc1 | 0.3 | 1.4 |
| S=c1nc(-c2cccc(Br)c2)[nH][nH]1 | 0.9 (inactive) | – |
| N#CC1=C2SCN(Cc3ccccc3)CN2C(=O)CC1c1ccc2c(c1)OCO2 (stereo not drawn) | 1 (inactive) | – |
| Cc1ccc(C)c(-n2sc3ccc(F)cc3c2=O)c1 | 1 | 2.9 |
| O=c1c2ccc(F)cc2sn1-c1cc(Cl)ccc1Cl | 0.8 (inactive) | 1 |
| O=c1c2ccccc2sn1-c1ccc(Cl)cc1 | 0.6 | 3.4 |
| COc1ccc(OC)c(N=c2ssnc2Cl)c1 | 1.7 | 2.5 |
| CN(C)c1ccc(N=c2ssnc2Cl)cc1 | 1 (inactive) | 0.8 |
| O=c1c2ccccc2sn1-c1cccc(S(=O)(=O)Nc2ccc(Cl)cc2)c1 | 0.7 (inactive) | 0.4 |
| Cc1ccc(C)n1-c1nc(=S)[nH][nH]1 | 1 (inactive) | – |
| Clc1nssc1=Nc1ccc(Br)cc1 | 0.5 | 3.6 |
| Cc1ccc(C)c(-n2sc3cc(F)ccc3c2=O)c1 | 0.6 | 1.4 |
